Among the data in patent US20260234124A1, “Substituted Pyrazolyl-Pyridinyl Compounds as Ligand Directed Degraders of IRAK3” (Celgene Corporation, priority 2022, published 2026) are Dmax and IC50 values, retold here.

Experiment [1] concerns the target T1, IRAK3 (Homo sapiens, UniProt Q9Y616).
T1 sequence (Q9Y616 1-596): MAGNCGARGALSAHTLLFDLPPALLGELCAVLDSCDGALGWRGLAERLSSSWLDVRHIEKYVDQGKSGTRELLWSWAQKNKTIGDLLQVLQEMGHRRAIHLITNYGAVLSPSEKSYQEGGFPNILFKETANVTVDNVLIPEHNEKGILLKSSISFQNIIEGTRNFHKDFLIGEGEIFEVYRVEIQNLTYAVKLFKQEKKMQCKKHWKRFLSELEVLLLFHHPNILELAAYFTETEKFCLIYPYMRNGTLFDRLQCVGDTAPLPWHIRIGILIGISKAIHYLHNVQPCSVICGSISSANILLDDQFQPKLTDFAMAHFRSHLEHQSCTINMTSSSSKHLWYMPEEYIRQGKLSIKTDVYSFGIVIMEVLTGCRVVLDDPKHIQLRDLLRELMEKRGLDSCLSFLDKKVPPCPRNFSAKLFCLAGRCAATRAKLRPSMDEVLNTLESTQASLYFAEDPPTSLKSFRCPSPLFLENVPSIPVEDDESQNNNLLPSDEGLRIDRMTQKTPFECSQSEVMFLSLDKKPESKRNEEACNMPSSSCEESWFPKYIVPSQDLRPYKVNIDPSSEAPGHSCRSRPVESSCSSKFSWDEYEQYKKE
The experiment is described as follows: IRAK endogenous HTRF degradation assay (Total-IRAK3 HTRF kit). The format is cell-based. The arrangement: IRAK Endogenous HTRF Degradation Assay; endogenous in cells. Particulars: endogenous IRAK3, overnight incubation; % Dmax = 100 − Ymin. How it is done:
Example B2. IRAK Endogenous HTRF Degradation Assay
Cells (~50k) were plated in Cisbio 96-well low volume white plates (Cisbio: cat #66PL96005). Compounds were dissolved in DMSO and a 3-fold serial dilution was performed using a TECAN D300E. Cells were incubated with the compound overnight. Total-IRAK3 HTRF kit from Cisbio was used for degradation analysis (Cisbio: 63ADK101PEH). Cryptate and D2 antibodies were diluted in Detection buffer as per manufacturers recommendation. Then 2 μL of each solution was added to 16 μL lysate. Buffer control (lysis buffer detection buffer), Cryptate control (lysis buffer+cryptate antibody+detection buffer), and Negative control (lysis buffer+cryptate antibody+D2 antibody) were made as per manufacturers recommendation. Post incubation with antibodies the HTRF signal was measured using a Perkin Elmer Envision reader and the HTRF signal was calculated using formula: (Emission at 665 nm/Emission at 615 nm)*10,000. All HTRF values were normalized to the average value of DMSO. The average value of the DMSO control wells were set to equal 100% of the relative IRAK3 protein levels. Normalized luminescence values were plotted on a graph as a function of compound concentration. Compound concentration was plotted on the x-axis and the corresponding normalized IRAK3 protein levels on the y-axis. The EC50 value (the half-maximum effective concentration) of a compound for the degradation of the IRAK3 was calculated using a four-parameter logistic model (sigmoidal dose-response model) (FIT=(A+{(B−A)/1+[(C/x)D]})) where C is the inflection point (EC50), D is the […], and A and B are the low and high limits of the fit, respectively). The Ymin was calculated by determining the lowest percentage of target protein remaining following compound treatment. Dmax was calculated from Ymin (% Dmax=100−Ymin).
(§1) Using these assays, IC50, Dmax, EC50, and DC50 values of the following compounds were determined. Dmax is defined as the maximum percent degradation achieved and DC50 is the concentration at which 50% degradation is achieved.

In experiment [2] the target is T1, IRAK3. The experiment is described as follows: IRAK3 biochemical binding assay (LanthaScreen Eu Kinase Binding, TR-FRET). The note with it: 10 nM tracer, 10 nM IRAK3, 1 hour at room temperature. The protocol: Example B3. IRAK3 Biochemical Binding Assay
The LanthaScreen® Eu Kinase Binding assay was performed as described by the vendor (ThermoFisher Scientific Waltham, MA). Briefly, 100× solutions of compound were prepared in DMSO via serial dilution of the 10 mM stock solution in a 384-well reagent plate using 3-fold intervals to achieve final concentrations. 1 μL of the compound dilution series were added to the corresponding wells of a 384-well reagent plate containing 32.3 μL of 1× buffer (50 mM HEPES pH 7.4, […], 1 mM EGTA, 0.01% Brij-35). 5 μL of the buffer diluted compounds were transferred to the corresponding wells of a 384-well assay plate. 5 μL of 3× tracer was transferred to each well of the assay plate for a final tracer concentration of 10 nM. Finally, 5 μL of the 3× Eu-Anti-GST and IRAK3 mix was transferred to each well for a final concentration of 2 nM and 10 nM, respectively. Reactions were allowed to incubate for 1 hour at room temperature. TR-FRET signal of the interaction ([…]/λem 665/λem 615) was read at room temperature with a delay time of 100 μs and an integration time of 200 μs using an Envision plate reader. Background corrected emission signal ratios at each compound concentration were used to calculate percentage of inhibition (% o Inhibition). Plots of % Inhibition versus inhibitor concentrations were fit according to a dose-response equation (Eq. 1) to generate IC50 and Hill slope values using Dotmatics software (Dotmatics, Bishops Storford, Hertfordshire, England).
as §1

One may read the Dmax as the largest share of the target that was removed. Low readings indicate a partial loss of target, high ones a fuller loss of target. The IC50 is the concentration needed to halve the response being measured. Low readings indicate greater potency, high ones weaker potency. At IRAK3 [1], `C[C@@H](Oc1cc(-c2cnn(C3CCN(C4CCC5(CC4)CCN(C(=O)c4ccc6c(c4)CN(C4CCC(=O)NC4=O)C6=O)CC5)CC3)c2)cnc1N)c1c(Cl)ccc(F)c1Cl` (stereo partly drawn) [Compound 20, 3-(5-(9-(4-(4-(6-amino-5-((R)-1-(2,6-dichloro-3-fluorophenyl)ethoxy)pyridin-3-yl)-1H-pyrazol-1-yl)piperidin-1-yl)-3-azaspiro[5.5]undecane-3-carbonyl)-1-oxoisoindolin-2-yl)piperidine-2,6-dione] yielded a Dmax of 73%. The IC50 at IRAK3 [2] stood at 10 nM.

In turn, `C[C@@H](Oc1cc(-c2cnn(C3CCN(CCOCCOCCNC(=O)COc4cccc5c4C(=O)N(C4CCC(=O)NC4=O)C5=O)CC3)c2)cnc1N)c1c(Cl)ccc(F)c1Cl` (stereo partly drawn) [Compound 10, N-(2-(2-(2-(4-(4-(6-amino-5-((R)-1-(2,6-dichloro-3-fluorophenyl)ethoxy)pyridin-3-yl)-1H-pyrazol-1-yl)piperidin-1-yl)ethoxy)ethoxy)ethyl)-2-((2-(2,6-dioxopiperidin-3-yl)-1,3-dioxoisoindolin-4-yl)oxy)acetamide] had a Dmax on IRAK3 [1] of 37%. Further, on IRAK3 [2], the IC50 was 27 nM.

Turning to `C[C@@H](Oc1cc(-c2cnn(C3CCN(CCOCCNC(=O)COc4cccc5c4C(=O)N(C4CCC(=O)NC4=O)C5=O)CC3)c2)cnc1N)c1c(Cl)ccc(F)c1Cl` (stereo partly drawn) [Compound 9, N-(2-(2-(4-(4-(6-amino-5-((R)-1-(2,6-dichloro-3-fluorophenyl)ethoxy)pyridin-3-yl)-1H-pyrazol-1-yl)piperidin-1-yl)ethoxy)ethyl)-2-((2-(2,6-dioxopiperidin-3-yl)-1,3-dioxoisoindolin-4-yl)oxy)acetamide], the Dmax on IRAK3 [1] is 23%. Further, the IC50 at IRAK3 [2] was found to be 45 nM.

`C[C@@H](Oc1cc(-c2cnn(C3CCN(C4CCC5(CC4)CCN(C(=O)c4ccc6c(c4)C(=O)N(C4CCC(=O)NC4=O)C6)CC5)CC3)c2)cnc1N)c1c(Cl)ccc(F)c1Cl` (stereo partly drawn) [Compound 19, 3-(6-(9-(4-(4-(6-amino-5-((R)-1-(2,6-dichloro-3-fluorophenyl)ethoxy)pyridin-3-yl)-1H-pyrazol-1-yl)piperidin-1-yl)-3-azaspiro[5.5]undecane-3-carbonyl)-1-oxoisoindolin-2-yl)piperidine-2,6-dione]: the Dmax at IRAK3 [1] is 42%. On IRAK3 [2], this molecule showed an IC50 of 4 nM.

On to `C[C@@H](Oc1cc(-c2cnn(C3CCN(CCNC(=O)COc4ccc5c(c4)C(=O)N(C4CCC(=O)NC4=O)C5=O)CC3)c2)cnc1N)c1c(Cl)ccc(F)c1Cl` (stereo partly drawn) [Compound 13, N-(2-(4-(4-(6-amino-5-((R)-1-(2,6-dichloro-3-fluorophenyl)ethoxy)pyridin-3-yl)-1H-pyrazol-1-yl)piperidin-1-yl)ethyl)-2-((2-(2,6-dioxopiperidin-3-yl)-1,3-dioxoisoindolin-5-yl)oxy)acetamide], for which the Dmax on IRAK3 [1] is 65%. On IRAK3 [2], this molecule registered an IC50 of 16 nM.

On to `Cc1ncsc1-c1ccc(CNC(=O)[C@@H]2C[C@@H](O)CN2C(=O)[C@@H](NC(=O)COCCOCCOCCOCCOCCOCCOCCN2CCC(n3cc(-c4cnc(N)c(O[C@H](C)c5c(Cl)ccc(F)c5Cl)c4)cn3)CC2)C(C)(C)C)cc1` [Compound 7, (2S,4R)-1-((S)-26-(4-(4-(6-amino-5-((R)-1-(2,6-dichloro-3-fluorophenyl)ethoxy)pyridin-3-yl)-1H-pyrazol-1-yl)piperidin-1-yl)-2-(tert-butyl)-4-oxo-6,9,12,15,18,21,24-heptaoxa-3-azahexacosanoyl)-4-hydroxy-N-(4-(4-methylthiazol-5-yl)benzyl)pyrrolidine-2-carboxamide], for which, on IRAK3 [1], the Dmax amounted to 50%. For the same molecule, the IC50 on IRAK3 [2] turned out to be 331 nM.

Molecule `Cc1ncsc1-c1ccc(CNC(=O)[C@@H]2C[C@@H](O)CN2C(=O)[C@@H](NC(=O)COCCOCCN2CCC(n3cc(-c4cnc(N)c(O[C@H](C)c5c(Cl)ccc(F)c5Cl)c4)cn3)CC2)C(C)(C)C)cc1` [Compound 2, (2S,4R)-1-((S)-2-(2-(2-(2-(4-(4-(6-amino-5-((R)-1-(2,6-dichloro-3-fluorophenyl)ethoxy)pyridin-3-yl)-1H-pyrazol-1-yl)piperidin-1-yl)ethoxy)ethoxy)acetamido)-3,3-dimethylbutanoyl)-4-hydroxy-N-(4-(4-methylthiazol-5-yl)benzyl)pyrrolidine-2-carboxamide] showed a Dmax at IRAK3 [1] of 35%. This molecule had an IC50 at IRAK3 [2] of 139 nM.

`C[C@@H](Oc1cc(-c2cnn(C3CCN(CCOCCOCCOCCNC(=O)COc4ccc5c(c4)C(=O)N(C4CCC(=O)NC4=O)C5=O)CC3)c2)cnc1N)c1c(Cl)ccc(F)c1Cl` (stereo partly drawn) [Compound 16, N-(2-(2-(2-(2-(4-(4-(6-amino-5-((R)-1-(2,6-dichloro-3-fluorophenyl)ethoxy)pyridin-3-yl)-1H-pyrazol-1-yl)piperidin-1-yl)ethoxy)ethoxy)ethoxy)ethyl)-2-((2-(2,6-dioxopiperidin-3-yl)-1,3-dioxoisoindolin-5-yl)oxy)acetamide]: at IRAK3 [1], the Dmax turned out to be 25%. Moreover, the IC50 on IRAK3 [2] was 47 nM.

Consider `C[C@@H](Oc1cc(-c2cnn(C3CCN(C4CCC5(CC4)CCN(C(=O)c4ccc6c(c4)C(=O)N(C4CCC(=O)NC4=O)C6=O)CC5)CC3)c2)cnc1N)c1c(Cl)ccc(F)c1Cl` (stereo partly drawn) [Compound 18, 5-(9-(4-(4-(6-amino-5-((R)-1-(2,6-dichloro-3-fluorophenyl)ethoxy)pyridin-3-yl)-1H-pyrazol-1-yl)piperidin-1-yl)-3-azaspiro[5.5]undecane-3-carbonyl)-2-(2,6-dioxopiperidin-3-yl)isoindoline-1,3-dione], for which the Dmax on IRAK3 [1] amounted to 73%. This molecule also showed an IC50 on IRAK3 [2] of 12 nM.

Take `Cc1ncsc1-c1ccc(CNC(=O)[C@@H]2C[C@@H](O)CN2C(=O)[C@@H](NC(=O)COCCOCCOCCOCCN2CCC(n3cc(-c4cnc(N)c(O[C@H](C)c5c(Cl)ccc(F)c5Cl)c4)cn3)CC2)C(C)(C)C)cc1` [Compound 4, (2S,4R)-1-((S)-17-(4-(4-(6-amino-5-((R)-1-(2,6-dichloro-3-fluorophenyl)ethoxy)pyridin-3-yl)-1H-pyrazol-1-yl)piperidin-1-yl)-2-(tert-butyl)-4-oxo-6,9,12,15-tetraoxa-3-azaheptadecanoyl)-4-hydroxy-N-(4-(4-methylthiazol-5-yl)benzyl)pyrrolidine-2-carboxamide]: the Dmax at IRAK3 [1] came out at 21%. Besides, the IC50 at IRAK3 [2] turned out to be 120 nM.

Turning to `Cc1ncsc1-c1ccc(CNC(=O)[C@@H]2C[C@@H](O)CN2C(=O)[C@@H](NC(=O)COCCOCCOCCOCCOCCOCCN2CCC(n3cc(-c4cnc(N)c(O[C@H](C)c5c(Cl)ccc(F)c5Cl)c4)cn3)CC2)C(C)(C)C)cc1` [Compound 6, (2S,4R)-1-((S)-23-(4-(4-(6-amino-5-((R)-1-(2,6-dichloro-3-fluorophenyl)ethoxy)pyridin-3-yl)-1H-pyrazol-1-yl)piperidin-1-yl)-2-(tert-butyl)-4-oxo-6,9,12,15,18,21-hexaoxa-3-azatricosanoyl)-4-hydroxy-N-(4-(4-methylthiazol-5-yl)benzyl)pyrrolidine-2-carboxamide], the Dmax at IRAK3 [1] worked out at 56%. For the same molecule, the IC50 at IRAK3 [2] turned out to be 108 nM.
